Patent US20210023223A1, “HYDROCARBON / LIPID - CAROTENOID COMPLEXES” (IP SCIENCE LIMITED, priority 2018, published 2021)

Assays:
[1] = system: moderately obese volunteers; assay: Lipoprotein O2 by catalymetry; type: in vivo, human
Description: (§1) Study Design. The total number of volunteers recruited to take part in the study was 18 (9 male and 9 female subjects) Caucasians 40-67 years old.
(§2) Products Formulated with Lycopene was developed and made by Lycotec Ltd. (Cambridge, United Kingdom). The daily dose was 1 capsule of 20 mg of lycopene, and it was taken with the main meal of the day. The period of administration was 1 month.
LDL-Px and Lipoprotein O2. Activity of serum LDL peroxidase proteins, which include IgG with superoxide dismutase activity, was measured as described previously. Plasma oxygen, which carried by blood lipids/lipoproteins was measured by catalymetry.

[2] = system: moderately obese volunteers; assay: Tissue oxygenation StO2 by NIRS, 20 mg lycopene study; type: in vivo, human
Description: as §1, §2
Thenar eminence and forearm muscles of the patients were used as a tissue target for the assessment of oxygen saturation, StO2, or combined level of oxygenated haemoglobin and myoglobin. StO2 was assessed by continuous wavelength near-infrared spectroscopy, NIRS, with wide-gap second-derivative (In Spectra, Hutchinson Technology, MN, USA). The measurements were taken at different time points.
The recording was initiated after 15 min of rest in a supine position before occlusion of the brachial artery. It was then continued during stagnant ischemia induced by rapidly inflating the cuff to 50 mm Hg above systolic BP. The ischemia lasted for 3 min, and the recording period lasted for another 5 min after that until StO2 was stabilized. The area under the hyperaemic curve, AUC, of the recorded signal for the settling time in the post-occlusion period was then calculated as described earlier in % O2/minute.

Melting time at 37° C. = type: physicochemical
Description: Approximately 20 mg of butter, or pork fat, or beef fat, or cocoa butter, or chocolate, with or without certain concentrations of carotenoids, were placed on the surface of the laboratory slides and incubated at 37° C. in a laboratory incubator (TLK39).
Results presented in FIG. 15 show three different carotenoids—lycopene, lutein and astaxanthin, can reduce, albeit to a different degree, the melting time of dark chocolate regardless of its tempering protocols: Protocol I—28° C., Protocol II—29° C., Protocol III—30° C.

[3] = Spreadability of oil drops on the surface of water; type: physicochemical
Description: 1. A petri dish of 13.5 cm diameter was filled to the brim with unheated water.
2. 0.3 ml of Olive or Sunflower oil was dropped onto the surface from a standardised height (30 cm) using a 1 ml pipette.
3. The resultant droplets were photographed and measured 30 sec after impact.
4. For increased reliability, the procedure was repeated 5 times.
5. Steps 1-4 were then repeated for Olive and Sunflower oils with or without carotenoids in different concentrations.

[4] = Size of lipid droplets of dairy butter, microscopy; type: physicochemical
Excerpt: (§3) For measurement of lipid droplets and fat globules and quantification of their size binocular microscope Olympus BX41 was used with Cell^B software for morphometric analysis. All parameters were collected from 10 randomly selected microscopic fields at ×1000).
Incorporation of lycopene into the butter led to a significant increase in the size of its lipid droplets and many reached more than 100 or even 300 fold of their diameter. This effect was dose-dependent, and can already be observed for less than 1 molecule of lycopene to 224,000 molecules of butter triglycerides.

[5] = Size of beef fat globules, microscopy; type: physicochemical
Excerpt: as §3, with “×1000). In case of beef fat, lycopene incorporation led to a smaller increase of its fat globules, only by 30%, FIG. 3.” for “×1000).”

[6] = system: B10.MLM cells (alveolar macrophages); assay: Transmission electron microscopy of cells; type: cell-based; conditions: 48 hours
Description: B10.MLM cells were cultured with or without lycopene for 48 hours and then harvested from the plates with trypsin-versene solution. Cell pellets obtained by centrifugation for 10 min at 1500 r.p.m. (Rotanta 460R; Hettich) were fixed with Ito-Karnovsky fixative solution, followed by post-fixation with OsO4 and treatment with aqueous uranyl acetate to provide contrast. The specimens were subsequently dehydrated in an ascending series of alcohol concentrations (50, 70, 96 and 100% ethanol), infiltrated with a 1:1 (v/v) mixture of LR White resin and 100% ethanol for 1 h and in a pure resin for 12 h at 4° C. Resin polymerization was performed at 56° C. for 24 h. Ultrathin sections were prepared, treated with a lead solution to provide contrast (Reynolds, 1963) and analysed using a JEOL 100B transmission electron microscope with an accelerating voltage of 80 kV (Jeol, Japan).

[7] = Oil volume needed to cover water surface; type: physicochemical; conditions: vs unmodified olive oil
Excerpt: The other way to assess changes in oil viscosity, caused by carotenoids, would be to measure how much oil would be needed to cover a water surface of the same size. The lower viscosity of the oil the more spreadable it will be, and consequently less of it would be needed to cover this surface. Therefore, by measuring how much oil would be required to cover a certain surface of water we can asses how deep changes in the lipid folding were made by incorporating carotenoids.
An additional nine heating experiments were carried out when either pure Napolina olive oil, Napolina olive oil containing Astaxanthin (7 mg/ml), or Napolina olive oil containing Lycopene (7 mg/ml) was carefully poured over the surface of the water in order to prevent evaporation. The amount of oil required to completely cover the surface of the 100 ml water sample in the cup (diameter—7.4 cm) was measured (15 ml Falcon laboratory tubes and 1 ml Pipetman pitettes were used) and recorded for each oil type. The thickness of the resulting oil film (necessary to completely cover water surface) was then calculated. Temperature change curves were compared for uncovered water and water samples overlayed with three varieties of oil at heating temperatures of 200° C., 250° C. and 300° C. Water samples overlaid with oils were heated until water reached boiling point (usually at 99° C.). […]

[8] = Heating dairy butter to boiling point; type: physicochemical
Description: Small pieces of butter (about 1 g) were placed in a metallic tray. They were heated to 350° C. (Revotherm, Scientific Instruments Ltd.) and boiled for 3 minutes. Time taken to reach boiling point was fixed with a laboratory timer (QUANTUM).

[9] = after 20 mg lycopene daily for one month

Melting time of dark chocolate (Melting time at 37° C.): 8 min
Diameter of spread lipid drops relative to intact oil ([3]; 1 molecule of lycopene within about 120,000 molecules of oil lipids): 6-8 fold
Increase of spreadability on the surface of the water ([3]; sunflower oil): 23 fold
Size of butter lipid droplets, Mean ([4]; lycopene dose 0.1 per 30 g of butter): 34.32 μm
Size of butter lipid droplets, Mean ([4]; lycopene dose 0.5 per 30 g of butter): 60.39 μm
Size of butter lipid droplets, Mean ([4]; lycopene dose 1.0 per 30 g of butter): 92.35 μm
Size of butter lipid droplets, Mean ([4]; lycopene dose 3.5 per 30 g of butter): 90.18 μm
Size of butter lipid droplets, Mean ([4]; lycopene dose 7.0 per 30 g of butter): 178.95 μm
Size of butter lipid droplets, Mean ([4]; lycopene dose 10.0 per 30 g of butter): 141.17 μm
Increase in the size of butter lipid droplets (diameter) ([4]; many droplets, 'more than 100 or even 300 fold'): more than 100 fold
Increase of beef fat globules [5]: 30%
Reduction of oil required to cover the same water area [7]: ~60%
Reduction of time to bring butter to its boiling point ([8]; number of lycopene molecules increased to 10): 75%
Reduction of time to bring butter to its boiling point ([8]; one molecule of lycopene to more than 22,000 molecules of butter triglycerides): 25%
SMILES: CC(C)=CCC/C(C)=C/C=C/C(C)=C/C=C/C(C)=C/C=C/C=C(C)/C=C/C=C(C)/C=C/C=C(\C)CCC=C(C)C [Lycopene]
Lipoprotein O2 [1, 9]: 3.44 ± 0.27 µM
Lipoprotein O2 ([1]; before, n = 18): 2.94 ± 0.25 µM
StO2 [2, 9]: 80.4 ± 5.3^ AUC mm
StO2 ([2]; before, n = 18): 64.1 ± 4.9^ AUC mm
Mitochondrial structures [6]: significantly increased both in size and their numbers
